# Tests used:
# [1] = target: Vascular endothelial growth factor receptor 2 (Homo sapiens) (UniProt P35968); experiment: Inhibition of KDR (unknown origin) using poly (Glu, Tyr) 4:1 as substrate at 100 uM after 1 hr by ELISA relative to control
# [2] = target: Mitogen-activated protein kinase 13 (Homo sapiens) (UniProt O15264); experiment: Inhibition of recombinant human SAPK4 using Ulight-CFFKNIVTPRTPPPSQGK-amide as substrate at 100 uM after 15 mins in presence of ATP relative to control
# [3] = target: 3-phosphoinositide-dependent protein kinase 1 (Homo sapiens) (UniProt O15530); experiment: Inhibition of recombinant human PDK1 using Ulight-FLGFTYVAP as substrate at 100 uM after 90 mins in presence of ATP relative to control
# [4] = target: Dual specificity mitogen-activated protein kinase kinase 1 (Homo sapiens) (UniProt Q02750); experiment: Inhibition of recombinant human MEK1 using inactivated ERK2 as substrate at 100 uM after 60 mins in presence of ATP relative to control
# [5] = tested on: A2780; experiment: Antiproliferative activity against human A2780 cells measured after 48 hrs by MTT assay; format: functional, cell-based; conditions: A2780, 48 h
# [6] = target: RAC-alpha serine/threonine-protein kinase (Homo sapiens) (UniProt P31749); experiment: Inhibition of recombinant human PKBalpha using CREBtide (CKRREILSRRPSYRK) as substrate at 100 uM after 60 mins in presence of ATP relative to control
# [7] = tested on: Saccharomyces cerevisiae; experiment: Inhibition of yeast CK1 using poly (Glu, Tyr) 4:1 as substrate after 1 hr by ELISA relative to control; conditions: concentration not given here
# [8] = target: Cyclin-dependent kinase 1/cyclin B1 (Homo sapiens) (UniProt P06493+P14635); experiment: Inhibition of recombinant human CDK1/CyclinB using Ulight-CFFKNIVTPRTPPPSQGK-amide as substrate at 100 uM after 15 mins in presence of ATP relative to control; format: protein-complex assay
# [9] = species on record: Homo sapiens; experiment: Inhibition of human PKA at 100 uM in presence of ATP relative to control
# [10] = target: Vascular endothelial growth factor receptor 1 (Homo sapiens) (UniProt P17948); experiment: Inhibition of VEGFR-1 (unknown origin) using poly (Glu, Tyr) 4:1 as substrate at 100 uM after 1 hr by ELISA relative to control
# [11] = target: Mitogen-activated protein kinase 8 (Homo sapiens) (UniProt P45983); experiment: Inhibition of human JNK1alpa1 using at 100 uM after 90 mins in presence of ATP relative to control
# [12] = target: Insulin-like growth factor 1 receptor (Homo sapiens) (UniProt P08069); experiment: Inhibition of IGF1R (unknown origin) using poly (Glu, Tyr) 4:1 as substrate at 100 uM after 1 hr by ELISA relative to control
# Chain of Insulin-like growth factor 1 receptor (Homo sapiens) (P08069 31-736 limits assumed): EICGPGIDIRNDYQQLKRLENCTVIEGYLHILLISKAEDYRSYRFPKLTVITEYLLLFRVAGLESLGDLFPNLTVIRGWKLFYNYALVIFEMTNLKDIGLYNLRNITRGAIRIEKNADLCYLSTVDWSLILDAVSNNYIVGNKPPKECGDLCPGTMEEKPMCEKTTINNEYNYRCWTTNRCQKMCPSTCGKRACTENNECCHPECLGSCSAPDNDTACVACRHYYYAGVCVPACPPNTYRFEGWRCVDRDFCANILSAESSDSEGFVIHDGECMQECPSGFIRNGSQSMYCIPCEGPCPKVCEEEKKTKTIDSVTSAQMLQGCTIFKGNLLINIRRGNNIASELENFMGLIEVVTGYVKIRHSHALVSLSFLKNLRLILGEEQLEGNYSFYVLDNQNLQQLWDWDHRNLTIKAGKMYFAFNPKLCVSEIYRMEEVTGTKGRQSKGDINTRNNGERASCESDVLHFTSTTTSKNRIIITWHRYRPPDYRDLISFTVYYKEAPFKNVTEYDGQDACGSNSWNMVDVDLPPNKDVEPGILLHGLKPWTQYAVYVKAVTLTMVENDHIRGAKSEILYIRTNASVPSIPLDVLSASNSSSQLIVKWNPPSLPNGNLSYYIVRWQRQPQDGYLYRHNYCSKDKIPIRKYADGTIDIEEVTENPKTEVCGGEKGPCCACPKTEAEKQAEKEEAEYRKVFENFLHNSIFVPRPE
# Chain of Insulin-like growth factor 1 receptor (Homo sapiens) (P08069 741-1367 limits assumed): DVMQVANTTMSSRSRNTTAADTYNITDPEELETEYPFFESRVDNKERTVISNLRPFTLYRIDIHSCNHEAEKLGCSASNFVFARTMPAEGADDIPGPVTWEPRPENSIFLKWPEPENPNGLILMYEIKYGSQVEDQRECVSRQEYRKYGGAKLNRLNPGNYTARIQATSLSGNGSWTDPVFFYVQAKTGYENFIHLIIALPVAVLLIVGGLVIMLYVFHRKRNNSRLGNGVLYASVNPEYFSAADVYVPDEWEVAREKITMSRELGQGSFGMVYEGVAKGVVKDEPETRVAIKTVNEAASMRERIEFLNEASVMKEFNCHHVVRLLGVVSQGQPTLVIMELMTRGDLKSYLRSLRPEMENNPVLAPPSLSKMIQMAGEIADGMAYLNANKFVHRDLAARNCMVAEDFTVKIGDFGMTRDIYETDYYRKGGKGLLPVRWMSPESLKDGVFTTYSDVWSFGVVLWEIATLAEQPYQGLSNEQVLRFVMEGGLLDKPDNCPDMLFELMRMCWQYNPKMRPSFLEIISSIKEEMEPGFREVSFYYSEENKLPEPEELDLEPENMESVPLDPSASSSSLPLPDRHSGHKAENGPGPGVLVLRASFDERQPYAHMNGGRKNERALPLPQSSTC
# Chain of Dual specificity mitogen-activated protein kinase kinase 1 (Homo sapiens) (Q02750 whole entry): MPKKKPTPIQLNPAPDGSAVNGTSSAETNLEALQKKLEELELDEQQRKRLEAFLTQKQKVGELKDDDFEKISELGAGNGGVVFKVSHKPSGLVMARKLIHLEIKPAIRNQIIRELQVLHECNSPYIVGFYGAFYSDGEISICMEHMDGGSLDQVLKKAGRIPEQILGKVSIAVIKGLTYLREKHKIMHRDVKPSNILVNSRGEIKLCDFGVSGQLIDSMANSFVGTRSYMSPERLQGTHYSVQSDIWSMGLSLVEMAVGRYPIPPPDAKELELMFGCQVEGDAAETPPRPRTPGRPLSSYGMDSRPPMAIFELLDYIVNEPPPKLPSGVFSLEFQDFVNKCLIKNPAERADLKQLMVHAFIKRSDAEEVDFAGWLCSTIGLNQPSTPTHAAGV
# Chain of 3-phosphoinositide-dependent protein kinase 1 (Homo sapiens) (O15530 whole entry): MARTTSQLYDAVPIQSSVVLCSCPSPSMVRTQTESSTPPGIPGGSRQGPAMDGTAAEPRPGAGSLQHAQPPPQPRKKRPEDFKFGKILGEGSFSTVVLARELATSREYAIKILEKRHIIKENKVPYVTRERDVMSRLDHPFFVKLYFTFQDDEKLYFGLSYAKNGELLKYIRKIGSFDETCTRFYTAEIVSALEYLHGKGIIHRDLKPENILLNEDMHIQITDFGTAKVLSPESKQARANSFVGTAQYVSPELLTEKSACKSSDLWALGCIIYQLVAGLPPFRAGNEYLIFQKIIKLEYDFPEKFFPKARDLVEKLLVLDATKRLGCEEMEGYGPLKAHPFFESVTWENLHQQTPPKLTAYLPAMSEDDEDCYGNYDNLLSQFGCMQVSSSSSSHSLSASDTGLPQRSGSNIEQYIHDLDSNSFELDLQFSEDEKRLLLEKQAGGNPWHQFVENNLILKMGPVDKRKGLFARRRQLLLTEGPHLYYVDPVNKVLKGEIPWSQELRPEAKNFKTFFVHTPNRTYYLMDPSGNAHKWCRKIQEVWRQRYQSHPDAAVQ
# Chain of Cyclin-dependent kinase 1/cyclin B1 (Homo sapiens) (P06493 whole entry, looked up): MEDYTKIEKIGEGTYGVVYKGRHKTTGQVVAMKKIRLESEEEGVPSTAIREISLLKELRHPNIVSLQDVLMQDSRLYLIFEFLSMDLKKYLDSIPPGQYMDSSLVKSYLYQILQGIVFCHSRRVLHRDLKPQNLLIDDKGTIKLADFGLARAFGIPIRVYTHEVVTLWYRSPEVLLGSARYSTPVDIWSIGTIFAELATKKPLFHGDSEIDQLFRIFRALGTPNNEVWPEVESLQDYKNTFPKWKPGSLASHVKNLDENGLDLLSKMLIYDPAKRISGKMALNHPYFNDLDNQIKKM
# Chain of Cyclin-dependent kinase 1/cyclin B1 (Homo sapiens) (P14635 whole entry, looked up): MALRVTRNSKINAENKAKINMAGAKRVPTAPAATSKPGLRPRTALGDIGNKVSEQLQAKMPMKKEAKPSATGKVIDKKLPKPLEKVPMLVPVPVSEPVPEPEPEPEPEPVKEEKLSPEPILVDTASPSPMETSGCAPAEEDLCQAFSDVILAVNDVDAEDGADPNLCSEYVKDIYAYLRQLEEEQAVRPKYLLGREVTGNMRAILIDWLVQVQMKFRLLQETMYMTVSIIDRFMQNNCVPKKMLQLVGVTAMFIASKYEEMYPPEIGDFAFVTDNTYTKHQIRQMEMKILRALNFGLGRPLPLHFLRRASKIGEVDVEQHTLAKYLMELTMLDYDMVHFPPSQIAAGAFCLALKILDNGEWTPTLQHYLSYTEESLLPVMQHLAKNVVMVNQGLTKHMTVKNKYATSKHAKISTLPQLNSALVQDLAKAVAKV
# Chain of Mitogen-activated protein kinase 8 (Homo sapiens) (P45983 whole entry): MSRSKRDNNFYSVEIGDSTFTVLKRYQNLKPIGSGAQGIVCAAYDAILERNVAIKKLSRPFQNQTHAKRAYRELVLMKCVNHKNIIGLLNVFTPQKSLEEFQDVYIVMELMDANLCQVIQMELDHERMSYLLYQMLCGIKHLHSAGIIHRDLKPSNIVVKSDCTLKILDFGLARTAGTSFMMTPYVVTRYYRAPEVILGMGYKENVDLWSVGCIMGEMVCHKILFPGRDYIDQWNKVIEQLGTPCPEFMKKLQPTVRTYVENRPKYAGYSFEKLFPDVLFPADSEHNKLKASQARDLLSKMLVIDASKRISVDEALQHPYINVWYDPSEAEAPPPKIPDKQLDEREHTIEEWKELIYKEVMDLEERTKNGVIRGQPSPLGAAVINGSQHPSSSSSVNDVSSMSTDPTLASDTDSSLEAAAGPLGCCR
# Chain of Vascular endothelial growth factor receptor 2 (Homo sapiens) (P35968 whole entry): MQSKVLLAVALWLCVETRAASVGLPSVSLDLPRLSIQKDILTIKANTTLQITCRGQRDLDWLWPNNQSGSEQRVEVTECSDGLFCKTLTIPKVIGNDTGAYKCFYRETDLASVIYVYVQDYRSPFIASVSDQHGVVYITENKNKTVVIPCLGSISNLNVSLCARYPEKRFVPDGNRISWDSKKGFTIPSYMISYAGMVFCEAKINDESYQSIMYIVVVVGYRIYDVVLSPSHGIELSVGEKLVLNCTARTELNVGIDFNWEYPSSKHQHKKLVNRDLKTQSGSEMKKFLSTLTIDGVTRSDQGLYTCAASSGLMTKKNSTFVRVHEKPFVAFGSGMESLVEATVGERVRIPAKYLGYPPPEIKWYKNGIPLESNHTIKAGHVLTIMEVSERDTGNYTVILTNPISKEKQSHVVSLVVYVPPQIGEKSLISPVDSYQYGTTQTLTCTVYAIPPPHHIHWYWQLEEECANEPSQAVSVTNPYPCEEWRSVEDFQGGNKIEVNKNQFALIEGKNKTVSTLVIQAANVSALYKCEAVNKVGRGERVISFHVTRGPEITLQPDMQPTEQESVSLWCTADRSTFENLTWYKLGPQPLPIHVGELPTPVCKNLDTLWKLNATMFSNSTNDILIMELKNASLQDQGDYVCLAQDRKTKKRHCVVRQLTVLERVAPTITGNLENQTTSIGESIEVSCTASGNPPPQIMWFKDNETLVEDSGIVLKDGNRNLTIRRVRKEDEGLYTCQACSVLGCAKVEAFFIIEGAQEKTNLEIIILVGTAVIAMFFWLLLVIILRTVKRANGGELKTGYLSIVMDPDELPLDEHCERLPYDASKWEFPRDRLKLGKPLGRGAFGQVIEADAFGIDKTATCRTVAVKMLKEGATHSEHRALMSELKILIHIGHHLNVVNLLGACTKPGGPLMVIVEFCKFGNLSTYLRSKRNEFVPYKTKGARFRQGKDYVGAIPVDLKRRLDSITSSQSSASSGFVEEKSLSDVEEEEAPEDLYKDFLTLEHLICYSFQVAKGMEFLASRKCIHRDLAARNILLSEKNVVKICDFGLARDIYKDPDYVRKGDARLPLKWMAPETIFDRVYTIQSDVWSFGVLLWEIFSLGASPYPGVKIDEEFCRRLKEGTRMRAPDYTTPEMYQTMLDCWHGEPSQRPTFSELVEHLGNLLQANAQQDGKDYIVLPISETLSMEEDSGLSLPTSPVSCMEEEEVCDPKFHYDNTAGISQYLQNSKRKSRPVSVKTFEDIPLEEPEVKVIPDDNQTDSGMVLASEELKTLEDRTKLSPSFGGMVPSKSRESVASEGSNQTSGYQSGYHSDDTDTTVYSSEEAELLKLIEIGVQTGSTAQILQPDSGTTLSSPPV
smiles,measurement,setting,value
CCCCCCCCCCCCCCC(=O)NC1CCN(C(=O)C2Sc3ccccc3N(CC)C2=O)CC1 (configuration not stated),inhibition,[1],22.5%
same,inhibition,[2],16%
same,inhibition,[3],0%
same,inhibition,[4],12%
same,IC50,[5],4.6 µM
same,inhibition,[6],52%
same,inhibition,[7],14%
same,inhibition,[8],7%
same,inhibition,[9],36%
same,inhibition,[10],6.8%
same,inhibition,[11],-3%
same,inhibition,[12],5.1%
